From patent US20050113371A1, “Antifungal agent for topical use” (priority 2002, published 2005)
Structures can show the parent of a compound that is named as a salt. Where two headings read alike, the source gives them in different places.

Assays:
[1] = test system: Trichophyton mentagrophytes; test: Antifungal activity on Sabouraud agar medium, MIC and FIC index (Test Examples 1 and 2); assay type: cell-based; settings: cultured 7 days
Method: (§1) Amorolfine hydrochloride and each specimen (hereinafter referred to as “medicine”) at a mass ratio of 1:1 were dissolved in dimethyl sulfoxide (DMSO). Two-fold dilution series were prepared with DMSO. In the determination of the antifungal activity, the medicine and the medium were mixed together at a ratio of 1:99.
(§2) Sabouraud agar medium (Eiken) was used as a susceptibility determination medium. A microbe suspension containing 10^6 spores/mL of Candida albicans or about 10^6 conidia/mL of ringworm fungus was prepared. 5 μl of the suspension was inoculated on the Sabouraud agar medium containing the medicine with a micro-planter (a product of Sakuma Seisakusho). Candida albicans was cultured for 2 days and the tinea was cultured for 7 days. […]

Trichophyton rubrum = test: as above; assay type: cell-based; settings: cultured 7 days
Method: as §1, §2

Candida albicans [2] = test: as above; assay type: cell-based; settings: cultured 2 days
Method: as §1
(§3) Sabouraud agar medium (Eiken) was used as a susceptibility determination medium. A microbe suspension containing 10^6 spores/mL of Candida albicans or about 10^6 conidia/mL of ringworm fungus was prepared. 5 μl of the suspension was inoculated on the Sabouraud agar medium containing the medicine with a micro-planter (a product of Sakuma Seisakusho). Candida albicans was cultured for 2 days and the tinea was cultured for 7 days.
The effect obtained by the combination was judged on the basis of the following standards (FIC index): • >2: antagonism • 2>and 1<: additive action • 1>: potentiation
(1) Amorolfine hydrochloride and each specimen (hereinafter referred to as “medicine”) at a mass ratio of 100:1 to 1:100 were dissolved in dimethyl sulfoxide (DMSO). Two-fold dilution series were prepared with DMSO. In the determination of the antifungal activity, the medicine and the medium were mixed together at a ratio of 1:99.
(2) Amorolfine hydrochloride and each specimen (hereinafter referred to as “medicine”) at a mass ratio of 1:3 to 3:1 were dissolved in dimethyl sulfoxide (DMSO). Two-fold dilution series were prepared with DMSO. In the determination of the antifungal activity, the medicine and the medium were mixed together at a ratio of 1:99.
as §3, with “conidia/mL of each of two kinds of ringworm fungus” for “conidia/mL of ringworm fungus”, “agar medium with a” for “agar medium containing the medicine with a”, “and the Tinea fungus was cultured” for “and the tinea was cultured”

[3] = test system: Trichophyton mentagrophytes TIMM 1189; test: Tinea infection model of guinea pigs, culture test (Test Example 3); assay type: in vivo; settings: 0.75 mass % in polyethylene glycol 400 (combination 1:2), 0.1 mL once a day for 5 days from 3 days after inoculation; culture on 5th day after last application; 10 loci
Method: Amorolfine hydrochloride and each specimen (hereinafter referred to as “medicine”) at a mass ratio of 1:2 were dissolved in polyethylene glycol 400 to obtain a final concentration of 0.75% mass ratio. Each of amorolfine hydrochloride and the medicines was separately dissolved in polyethylene glycol 400 to obtain solutions having the final concentration of 0.75 mass %.
Male Hartley guinea pigs (Japan SLC Co., Ltd.; 6 weeks) were used. In the course of the test, they were kept separately from one another in an isolator (Negative rack, CLEA JAPAN, Inc.). They could freely have a solid food (G standard, Nihon Nosan Kogyo KK) and water.
Trichophyton mentagrophytes TIMM 1189 was cultured on slant Sabouraud glucose agar medium at 27° C. for 14 days. Then, sterilized saline containing 0.05% of Tween 80 was added thereto to obtain conidia. The resultant suspension was filtered through a cell strainer (FALCON Co., Ltd.) to remove large mycelian masses. The number of conidia was counted with hemocytometer. The conidia were diluted to 4×10^7/mL with sterilized saline containing 0.05% of Tween 80 to obtain the conidial suspension for inoculation.
The back of each guinea pig was shaved. Then, a circular inoculation part having a diameter of 2 cm was positioned on both sides of the spinal column. A gummed tape was applied thereto and then peeled. These steps was repeated three times, whereby the hair was pulled out of the skin in both parts and, at the same time, the top of the corneous layer of the skin was peeled off. The remaining hair was completely removed with tweezers. […]
When at least one of the 10 small pieces taken from one inoculated locus of the skin was the positive after the culture, the inoculated locus was judged to be positive. The ratio of positive loci after culture was calculated from the number of the cultured positive pieces in the total 10 inoculated loci in each experiment group.
The number of the cultured positive small pieces in the inoculated portion was scored as will be described below to determine the infection. […]

[4] = test system: Trichophyton mentagrophytes; settings: at a low concentration; cited from earlier work
Candida albicans [5] = settings: cited from earlier work
[6] = mice, cited from earlier work
[7] = rats, cited from earlier work
[8] = male and female rabbits, percutaneous; cited from earlier work
[9] = in vivo; cited from earlier work
[10] = rabbit, in vivo; cited from earlier work
[11] = Test Example 1, amorolfine hydrochloride + medicine at mass ratio 1:1

CN(C/C=C/C#CC(C)(C)C)Cc1cccc2ccccc12 [terbinafine hydrochloride, (E)-N-(6,6-dimethyl-2-hepten-4-ynyl)-N-methyl-1-naphthalenemethylamine hydrochloride]
FIC index obtained by the combination of amorolfine hydrochloride with another medicine [1, 11]: 0.52 | MIC ([1]; Trichophyton mentagrophytes, 168 h, Test Example 2, geometric mean MIC of two strains, read-out: Minimum inhibitory concentration (MIC)): 0.011 mg/L | FIC index obtained by the combination of amorolfine hydrochloride with another medicine (Trichophyton rubrum; [11]): 0.75 | MIC (Trichophyton rubrum; Trichophyton rubrum, 168 h, Test Example 2, geometric mean MIC of two strains, read-out: Minimum inhibitory concentration (MIC)): 0.004 mg/L | MIC (Candida albicans [2]; Candida albicans, 48 h, Test Example 2, geometric mean MIC of two strains, read-out: Minimum inhibitory concentration (MIC)): > 8 mg/L | FIC index obtained by the combination of amorolfine hydrochloride with another medicine (Candida albicans [2]; [11]): 0.27 | Minimum inhibitory concentration (MIC) (Candida albicans [2]; Test Example 2, geometric mean MIC of two strains, listed as T, hydrochloride): >8.0 mg/L | rate of positive loci after culture [3]: 100% | effect on germinated conidium of Trichophyton mentagrophytes [4]: fungicidal effect | concentration that exhibits a fungistatic effect on the propagation of the yeast form (Candida albicans [5]): at least 1 μg/mL | concentration that inhibits the conversion from yeast form to mycelial form (Candida albicans [5]): at least 0.098 μg/mL | LD50 ([6]; intravenous injection, female): 377 mg/kg | LD50 ([6]; intravenous injection, male): 410 mg/kg | LD50 ([6]; oral, female): > 4000 mg/kg | LD50 ([6]; oral, male): 3570 mg/kg | LD50 ([6]; subcutaneous, male and female): > 2000 mg/kg | LD50 ([7]; intravenous injection, female): 206 mg/kg | LD50 ([7]; intravenous injection, male): 220 mg/kg | LD50 ([7]; oral, male and female): > 4000 mg/kg | LD50 ([7]; percutaneous, male and female): > 2000 mg/kg | LD50 ([7]; subcutaneous, male and female): > 2000 mg/kg | LD50 [8]: > 1500 mg/kg | increase in the body weight of dams [9]: suppression on the increase in the body weight of dams | influence on the reproduction and the growth of the embryos [9]: no influence was recognized | localized irritation [10]: a weak irritation or a light cumulative irritation
